Results reported in paper PMC7382147, “An effective UFLC–MS/MS method used to study pharmacokinetics of major constituents of Fukeqianjin formula in rat plasma” (Chinese Medicine, 2020).
Values belong to the compound of their own block, whether it stands above or below them.

Experiments:
[1] = Pharmacokinetic study in rat plasma after oral administration of FKQJF extract (UFLC–MS/MS); assay type: in vivo, Sprague-Dawley (SD) rats; conditions: for AUC(0-inf) / AUC(0-t) / Cmax / half-life / MRT last / MRT inf / Tmax: Sprague-Dawley, oral FKQJF extract, single dose 3.2 g/kg, mean ± SD; for MRT last: read-out: MRT0→t; for MRT inf: read-out: MRT0→∞; for Tmax: read-out: Tmax
Experimental: (§1) Aliquots of 100 μL plasma samples were mixed with 10 μL I.S. samples (1 μg/mL, in MeOH), then added with 500 μL ACN, respectively, and vortexed for 5 min, centrifugated at 10,000 rpm for 10 min, the supernatants were transferred into clean vials and dried in a vacuum centrifugal concentrator at 1200 rpm, 37 °C. After that, 100 μL ACN was added and ultrasonic (frequency 40 kHz, power 250 W) extracted for 5 min to dissolve the dry residue, vortexed for 1 min and centrifugated at 10,000 rpm for 5 min, 1 μL of each final supernatant was injected into UFLC–MS/MS for analysis.
An 8050 UFLC–MS/MS system equipped with LC-30A binary pump, a SIL-30AC autosampler, a SPD-M30A PDA detector, a CTO-20AC column oven, and a 8050 triple quadrupole mass spectrometer with an electrospray ionization source (ESI) was applied to detect and quantify FKQJF compounds in plasma samples. Data were acquired and processed with the software LabSolution (Ver. 5.6).
A Kinetex XB-C18 HPLC column (100 × 2.1 mm, 2.6 μm) linked with an equivalent guard column was used for chromatographic separation. The aqueous phase contained 0.2% formic acid was used as mobile phase A, and organic phase ACN as mobile phase B. The gradient elution method using in this program was: 3–5 min, 28–31% B; 5–7 min, 31–34% B; 7–9 min, 34–65% B; 9–10 min, 65–95% B; 10–11.5 min, 95% B. The flow rate of mobile phase, column temperature and autosampler temperature was 0.4 mL/min, 30 °C and 4 °C, respectively. The injection volume of each sample was set as 1 μL. The main MS spectrum parameters were set as follows: the flow rate of drying gas (N2) was 10.0 L/min; the atomized gas was 3.0 L/min and the heating gas flow rate was 10.0 L/min. The main temperatures of interface, desolvation and heat block was 300 °C, 250 °C and 400 °C, respectively. And, the interface and detector voltage were 3 kV and 1.8 kV.
Rats were divided into a blank group and a FKQJF administration group (6 rats for each), and fasted for 24 h. Each rat of the administration group was given FKQJF extract suspension at a single dose of 3.2 g FKQJF/kg body weight through oral administration in parallel. Blood samples (0.25 mL) were gathered from the orbital venous plexus of each rat, with FKQJF group gathered at 14 serial timepoints (6 rats for each) as 0.083 h, 0.16 h, 0.33 h, 0.5 h, 0.75 h, 1.0 h, 1.5 h, 2 h, 3 h, 4 h, 6 h, 8 h, 12 h and 24 h after drug administration. The blood samples were centrifugated at 6000g for 10 min to isolate plasma and stored at − 20 °C for further analysis.
Data were analyzed using the Drug and Statistics (DAS) Software version 2.0 (DAS 2.0, Mathematical Pharmacology Professional Committee of China, Shanghai, China). The non-compartmental mode was applied to obtain the following PK parameters: area under the plasma concentration–time curve from time zero to the time of last quantifiable concentration (AUC0→t) and area under the plasma concentration–time curve to time infinity (AUC0→∞), the elimination half-life (t1/2), mean retention time to last sampling time (MRT0→t) and mean retention time to infinity (MRT0→∞). The maximum plasma concentration (Cmax) and the time to maximum concentration (Tmax) were observed directly from the concentration–time (C–T) curves and measured data. All data are presented as mean ± SD.

[2] = Ordinary stability of QC samples (room temperature for 8 h); assay type: physicochemical, rat; conditions: plasma QC, room temperature 8 h
Experimental: as §1
(§2) Six replicates of low, medium and high concentrations of quality control (QC) samples were used to verify the stabilities under different conditions including: place at room temperature for 8 h, freeze (− 20 °C) and thaw for three times, and store at − 20 °C for 20 days.

[3] = Freeze–thaw stability of QC samples (−20 °C, three times); assay type: physicochemical, rat; conditions: plasma QC, freeze (−20 °C) and thaw three times
Experimental: as §1, §2

[4] = Long-term stability of QC samples (−20 °C for 20 days); assay type: physicochemical, rat; conditions: plasma QC
Experimental: as §1, §2

- AUC(0-inf) [1]: 194 ± 27.9 ng·h/mL
- AUC(0-t) [1]: 74.7 ± 8.31 ng·h/mL
- Cmax [1]: 10.2 ± 0.58 ng/mL
- half-life [1]: 33.6 ± 27.1 h
- MRT last [1]: 9.85 ± 0.85 h
- MRT inf [1]: 48.2 ± 39.8 h
- Tmax [1]: 1.83 ± 0.29 h
- shape of the plasma concentration–time curve ([1]; oral FKQJF extract 3.2 g/kg): double-peaks
- Ordinary stability Mean ([2]; spiked 20 ng/mL): 107.46%
- Ordinary stability Mean ([2]; spiked 200 ng/mL): 86.65%
- Ordinary stability Mean ([2]; spiked 400 ng/mL): 106.31%
- Freeze–thaw stability Mean ([3]; spiked 20 ng/mL): 88.16%
- Freeze–thaw stability Mean ([3]; spiked 200 ng/mL): 112.10%
- Freeze–thaw stability Mean ([3]; spiked 400 ng/mL): 104.63%
- Long-term stability Mean ([4]; spiked 20 ng/mL): 114.56%
- Long-term stability Mean ([4]; spiked 200 ng/mL): 86.82%
- Long-term stability Mean ([4]; spiked 400 ng/mL): 118.76%
Structure (SMILES): CCC/C=C1\OC(=O)C2=C1CCC=C2 [Analyte 18, Z-ligustilide]

Structure (SMILES): COc1cc(O)c2c(=O)cc(-c3ccccc3)oc2c1OC [Analyte 19, 7-O-methylwogonin]
- AUC(0-inf) [1]: 252 ± 62.5 ng·h/mL
- AUC(0-t) [1]: 249 ± 65.5 ng·h/mL
- Cmax [1]: 169 ± 73.5 ng/mL
- half-life [1]: 1.1 ± 0.47 h
- MRT last [1]: 2.44 ± 0.12 h
- MRT inf [1]: 2.55 ± 0.21 h
- Tmax [1]: 2 h
- Ordinary stability Mean ([2]; spiked 10 ng/mL): 96.33%
- Ordinary stability Mean ([2]; spiked 150 ng/mL): 80.66%
- Ordinary stability Mean ([2]; spiked 300 ng/mL): 96.04%
- Freeze–thaw stability Mean ([3]; spiked 10 ng/mL): 103.66%
- Freeze–thaw stability Mean ([3]; spiked 150 ng/mL): 111.86%
- Freeze–thaw stability Mean ([3]; spiked 300 ng/mL): 94.97%
- Long-term stability Mean ([4]; spiked 10 ng/mL): 116.14%
- Long-term stability Mean ([4]; spiked 150 ng/mL): 84.29%
- Long-term stability Mean ([4]; spiked 300 ng/mL): 85.96%
